# According to patent US20090214600A1, “METHODS AND COMPOSITIONS FOR GASTRIC RESISTANT ORAL FORMULATIONS FOR INTESTINAL DELIVERY” (priority 2008, published 2009):
# Where “and” joins values, the source holds several entries; their conditions need not be identical. Equal entries are not always repeated. Where two headings read alike, the source gives them in different places.
# Experiments:
# [1] = Rabbit plasma Ceftriaxone concentration after oral administration of oral formulations (HPLC); type: in vivo; details: oral formulation, 40-80 mg Ceftriaxone, one line per animal (001-005)
# Protocol: Oral Ceftriaxone formulations were administered to rabbit test subjects through a formulation delivery tube to permit oral administration, illustrative of the same absorption processes as the human stomach and intestines. Rabbits were dosed at a Ceftriaxone load of 40-80 mg depending upon body weight. Rabbits were dosed with all five oral Ceftriaxone formulations and absorption data collected by HPLC analysis of plasma Ceftriaxone concentrations from the heparinized rabbit plasma specimen. Blood draws were collected at pre-determined intervals of time, spun down to separate serum, and serum was removed and frozen prior to delivery to Clinical Pathology Laboratories in Oklahoma City, Okla.
# [2] = single dose IM, 1.0 g, cited from earlier work
# [3] = cited from earlier work
# [4] = Rabbit plasma Ceftriaxone concentration after IV administration (control); type: in vivo
# [5] = single dose IV, 1.0 g, cited from earlier work
# [6] = in vivo; cited from earlier work
smiles,measurement,setting,value
"CO/N=C(\C(=O)N[C@@H]1C(=O)N2C(C(=O)O)=C(CSc3nc(=O)c(=O)[nH]n3C)CS[C@H]12)c1csc(N)n1 [Ceftriaxone, Ceftriaxone sodium]",Study Sample Concentration,[1]; 0.00 Hours,BLQ (BLQ = Below Limit of Quantitation (<1.00 mcg/mL))
same,Study Sample Concentration,[1]; 0.5 Hours,40.194 µg/mL and 31.84 µg/mL and 110.88 µg/mL and 143.15 µg/mL and 35.69 µg/mL
same,Study Sample Concentration,[1]; 1.0 Hours,27.41 µg/mL and 21.71 µg/mL and 75.60 µg/mL and 97.60 µg/mL and 24.33 µg/mL
same,Study Sample Concentration,[1]; 2.0 Hours,18.27 µg/mL and 14.47 µg/mL and 50.40 µg/mL and 65.07 µg/mL and 16.22 µg/mL
same,Study Sample Concentration,[1]; 4.0 Hours,7.31 µg/mL and 5.79 µg/mL and 20.16 µg/mL and 26.03 µg/mL and 6.44 µg/mL
same,Study Sample Concentration,[1]; 6.0 Hours,5.48 µg/mL and 4.34 µg/mL and 15.12 µg/mL and 19.52 µg/mL and 4.87 µg/mL
same,Plasma Concentrations,[2]; 0.5 hr,40 µg/mL
same,Plasma Concentrations,[2]; 1 hr,68 µg/mL
same,Plasma Concentrations,[2]; 2 hr,76 µg/mL
same,Plasma Concentrations,[2]; 4 hr,68 µg/mL
same,Plasma Concentrations,[2]; 6 hr,56 µg/mL
same,Plasma Concentrations,[2]; 8 hr,44 µg/mL
same,Plasma Concentrations,[2]; 12 hr,29 µg/mL
same,solubility in ethanol,[3]; ethanol,slightly soluble
same,solubility in methanol,[3]; methanol,sparingly
same,solubility in water,[3]; water,readily soluble
same,Plasma Concentration of Ceftriaxone Over Time After IV Administration,"[4]; animal 006, 0.00 Hours",BLQ (BLQ = Below Limit of Quantitation (<1.00 mcg/mL))
same,concentration at 0.5 h,"[4]; animal 006, 0.5 Hours, read-out: Plasma Concentration of Ceftriaxone Over Time After IV Administration",198 µg/mL
same,concentration at 1 h,"[4]; animal 006, 1.0 Hours, read-out: Plasma Concentration of Ceftriaxone Over Time After IV Administration",136 µg/mL
same,concentration at 2 h,"[4]; animal 006, 2.0 Hours, read-out: Plasma Concentration of Ceftriaxone Over Time After IV Administration",90.8 µg/mL
same,concentration at 4 h,"[4]; animal 006, 4.0 Hours, read-out: Plasma Concentration of Ceftriaxone Over Time After IV Administration",36.4 µg/mL
same,concentration at 6 h,"[4]; animal 006, 6.0 Hours, read-out: Plasma Concentration of Ceftriaxone Over Time After IV Administration",27.3 µg/mL
same,Plasma Concentrations,[5]; 0.5 hr,151 µg/mL
same,Plasma Concentrations,[5]; 1 hr,111 µg/mL
same,Plasma Concentrations,[5]; 2 hr,88 µg/mL
same,Plasma Concentrations,[5]; 4 hr,67 µg/mL
same,Plasma Concentrations,[5]; 6 hr,53 µg/mL
same,Plasma Concentrations,[5]; 8 hr,43 µg/mL
same,Plasma Concentrations,[5]; 12 hr,28 µg/mL
same,Plasma Concentrations,[5]; 16 hr,18 µg/mL
same,Plasma Concentrations,[5]; 24 hr,9 µg/mL
same,dose excreted as unchanged drug in the urine,[6],33-67%
